Measured values taken from patent US5159069A, “Sulfated tannins and their salts” (Yamanouchi Pharmaceutical Co., Ltd., priority 1988, dated 1992).

Tests used:
[1] = system: HTLV-IIIB-non-infected MT-4 cells; assay: Toxicity: influence on the proliferation of T cells; format: cell-based, human
Method: (§1) HTLV-IIIB-infected MT-4 cells were inoculated on RPMI 1640 culture mediums containing 10% heat-inactivated fetal calf serum, 100 IU/ml of penicillin and 100 μg/ml of streptomycin, to which tannic acid-S had been added in a variety of concentrations, in a cell number of 300,000/ml and were cultured at 37° C. in a carbon dioxide incubator. After the cultivation for three days, one half of the culture medium was withdrawn and the survival rate and the viable count (X 10^4 /ml) of the MT-4 cells in the medium were determined by a trypan blue dye exclusion test. To the remaining cultured cells, an equivalent amount of RPMI 1640 culture medium each containing the same amount of the drugs were added, the cultivation was further continued for additional 3 days and likewise the survival rate and the viable count were determined.
As in Experiment 1, there was observed the influence of the compounds (drugs) of the present invention on the proliferation of HTLV-IIIB-non-infected MT-4 cells. The results thus observed are listed on the following Tables XI to XIV. The numerical values in these Tables mean viable count (X 10^4 /ml) and those in parentheses mean survival rates.

[2] = system: HTLV-IIIB-infected MT-4 cells; assay: Inhibitory effect on expression of HIV-specific antigen (immunofluorescence); format: cell-based
Method: After drying the cells cultured in Experiment 1 on a slide glass, they were fixed with methanol for 3 minutes and treated with human anti-HIV-III positive serum (IF antibody titer×4096) which was diluted 1/1,000 time at 37° C. for 30 minutes. Thereafter, it was washed with phosphate-buffered saline (PBS) for 15 minutes and treated with an anti-human IgG conjugated with fluorescein-isothiocyanate at 37° C. for 30 minutes. It was again washed with PBS and then the number of fluorescent cells, more specifically expressed HIV-specific virus antigen proteins were determined with a fluorescence microscope. "%" is a ratio of the number of fluorescent ray emitting cells to the number of total cells.

[3] = system: HTLV-IIIB-infected MT-4 cells; assay: Inhibitory effect of drugs on HIV-induced cell damage (trypan blue dye exclusion); format: cell-based
Method: In this experiment, there were used human MT4 cells, a human T4-positive cell line carrying adult T-cell leukemia causative virus, HTLV-1 (Gann Monogr.,1982, Vol. 28, pp. 219 -228) and HTLF-IIIB which is one of the HIV strains.
as §1

[4] = system: MOLT-4 and MOLT-4/HIV HTLV-IIIB cells; assay: Inhibitory effect on giant cell formation by mixed cultivation of MOLT-4 and MOLT-4/HIV HTLV-IIIB cells; format: cell-based, human; settings: 24 hours co-culture, co-culture control 18.5%
Method: This experiment was performed by the recently developed method of Yamamoto et al. (see Yamamoto et al., Virology, 1988, 164, p. 542; and J. Clinical Microbiology, 1988, 26, p. 1229).
MOLT-4 cells which are HTLV-I negative human T cell strain, and MOLT-4/HIVHT LV II IB cells which are persistently HIV-infected cells are separately cultured in a RPMI 1640 culture medium supplemented with 10% fetal calf serum to a cell density of 5×10^5 /ml respectively, these were mixed in a ratio of 1:1 and the drug was added thereto.
The mixed culture medium was cultured at 37° C. for 24 hours in a carbon dioxide incubator and the distribution of cell size was determined by a Cell Multisizer (available from Coulter Electronics, Ltd., Luton, England).
In Table IX, the rate of cell having a size of not less than 20 μm is expressed by "%". If MOLT-4 cells and MOLT-4/HIVHT LV II IB cells are separately cultured, the rates are 4.5 and 3.3% respectively, but it increased up to 18.5% when they are co-cultured. When tannic acid-S was added to the mixed culture medium in a concentration of 5 μg/ml, the rate was reduced to 8.2%.

[5] = system: avian myeloblastosis virus RTase; format: biochemical; settings: 37° C., 40 minutes
Method: According to the method disclosed in Journal of Biological Chemistry, 1987, 262, p. 2187, the RTase inhibitory effect of the compounds of this invention is determined as follows:
More specifically, the compound of the present invention was added, in various amount, to a reaction solution which comprised 80 mM of Tris buffer solution (pH 8), 6 mM of magnesium chloride, 80 mM of potassium chloride, 10 mM of dithiothreitol, 20 μg/ml of polyadenylic acid, 0.02 μg/ml of oligodeoxy thymidine, 20 μM of tritium-labeled deoxythymidine-triphosphate and avian myeloblastosis virus RTase so that the total volume of the resultant solution was equal to 100 μl. After the reaction solution was incubated at 37° C. for 40 minutes, 100 μl of an ice-cooled 10% trichloroacetic acid solution was added to the solution to stop the reaction.
The reaction solution was filtered through a glass filter (Whatmann GF/C) and washed with a 10% trichloroacetic acid solution and then with ethanol. Thereafter, the glass filter was dried and examined by liquid scintillation counter.

[6] = Stability of powder and aqueous solution; settings: powder state and aqueous solution
[7] = drug 50 μg/ml, culture period 3 days
[8] = drug 50 μg/ml, culture period 6 days
[9] = drug 100 μg/ml, culture period 3 days
[10] = drug 100 μg/ml, culture period 6 days
[11] = drug 200 μg/ml, culture period 3 days
[12] = drug 200 μg/ml, culture period 6 days
[13] = drug 400 μg/ml, culture period 3 days
[14] = drug 400 μg/ml, culture period 6 days

## sodium salt of ellagic acid sulfate [Ellagic acid-S]
[1]; [7]
  Viable count: 700000 mL⁻¹
  survival rate: 84
[1]; [8]
  Viable count: 1.37e+06 mL⁻¹
  survival rate: 89
[1]; [9]
  Viable count: 990000 mL⁻¹
  survival rate: 87
[1]; [10]
  Viable count: 1.09e+06 mL⁻¹
  survival rate: 83
[1]; [11]
  Viable count: 990000 mL⁻¹
  survival rate: 83
[1]; [12]
  Viable count: 1.04e+06 mL⁻¹
  survival rate: 85
[1]; [13]
  Viable count: 810000 mL⁻¹
  survival rate: 84
[1]; [14]
  Viable count: 700000 mL⁻¹
  survival rate: 82
[2]; [7]
  Ratio of fluorescent ray emitting cells to total cells: < 1%
[2]; [8]
  Ratio of fluorescent ray emitting cells to total cells: 90%
[2]; [9]
  Ratio of fluorescent ray emitting cells to total cells: < 1%
[2]; [10]
  Ratio of fluorescent ray emitting cells to total cells: 6.4%
[2]; [11]
  Ratio of fluorescent ray emitting cells to total cells: < 1%
[2]; [12]
  Ratio of fluorescent ray emitting cells to total cells: < 1%
[2]; [13]
  Ratio of fluorescent ray emitting cells to total cells: 0%
[2]; [14]
  Ratio of fluorescent ray emitting cells to total cells: < 1%
[3]; [7]
  Viable count: 740000 mL⁻¹
  survival rate: 82%
[3]; [8]
  Viable count: 230000 mL⁻¹
  survival rate: 43%
[3]; [9]
  Viable count: 810000 mL⁻¹
  survival rate: 84%
[3]; [10]
  Viable count: 1.03e+06 mL⁻¹
  survival rate: 78%
[3]; [11]
  Viable count: 830000 mL⁻¹
  survival rate: 87%
[3]; [12]
  Viable count: 860000 mL⁻¹
  survival rate: 83%
[3]; [13]
  Viable count: 730000 mL⁻¹
  survival rate: 82%
[3]; [14]
  Viable count: 470000 mL⁻¹
  survival rate: 89%
[4]; drug 25 μg/ml
  Rate of Giant Cell (cells of size not less than 20 μm): 15.1%
[4]; drug 50 μg/ml
  Rate of Giant Cell (cells of size not less than 20 μm): 17.0%
[4]; drug 100 μg/ml
  Rate of Giant Cell (cells of size not less than 20 μm): 13.0%
[4]; drug 200 μg/ml
  Rate of Giant Cell (cells of size not less than 20 μm): 9.5%

## sodium salt of epicatechin sulfate [Epicatechin-S]
[1]; [7]
  Viable count: 1.14e+06 mL⁻¹
  survival rate: 91
[1]; [8]
  Viable count: 1.38e+06 mL⁻¹
  survival rate: 85
[1]; [9]
  Viable count: 1.1e+06 mL⁻¹
  survival rate: 86
[1]; [10]
  Viable count: 1.47e+06 mL⁻¹
  survival rate: 93
[1]; [11]
  Viable count: 1.11e+06 mL⁻¹
  survival rate: 83
[1]; [12]
  Viable count: 1.33e+06 mL⁻¹
  survival rate: 92
[1]; [13]
  Viable count: 1.18e+06 mL⁻¹
  survival rate: 86
[1]; [14]
  Viable count: 1.37e+06 mL⁻¹
  survival rate: 92
[2]; [7]
  Ratio of fluorescent ray emitting cells to total cells: < 1%
[2]; [8]
  Ratio of fluorescent ray emitting cells to total cells: 90%
[2]; [9]
  Ratio of fluorescent ray emitting cells to total cells: < 1%
[2]; [10]
  Ratio of fluorescent ray emitting cells to total cells: < 1%
[2]; [11]
  Ratio of fluorescent ray emitting cells to total cells: < 1%
[2]; [12]
  Ratio of fluorescent ray emitting cells to total cells: < 1%
[2]; [13]
  Ratio of fluorescent ray emitting cells to total cells: < 1%
[2]; [14]
  Ratio of fluorescent ray emitting cells to total cells: < 1%
[3]; [7]
  Viable count: 940000 mL⁻¹
  survival rate: 95%
[3]; [8]
  Viable count: 450000 mL⁻¹
  survival rate: 63%
[3]; [9]
  Viable count: 990000 mL⁻¹
  survival rate: 87%
[3]; [10]
  Viable count: 1.1e+06 mL⁻¹
  survival rate: 92%
[3]; [11]
  Viable count: 890000 mL⁻¹
  survival rate: 86%
[3]; [12]
  Viable count: 1.22e+06 mL⁻¹
  survival rate: 91%
[3]; [13]
  Viable count: 910000 mL⁻¹
  survival rate: 85%
[3]; [14]
  Viable count: 1.33e+06 mL⁻¹
  survival rate: 91%
[4]; drug 25 μg/ml
  Rate of Giant Cell (cells of size not less than 20 μm): 14.2%
[4]; drug 50 μg/ml
  Rate of Giant Cell (cells of size not less than 20 μm): 14.0%
[4]; drug 100 μg/ml
  Rate of Giant Cell (cells of size not less than 20 μm): 15.1%
[4]; drug 200 μg/ml
  Rate of Giant Cell (cells of size not less than 20 μm): 13.9%

## sodium salt of sulfated 3,4,5- trigalloylquinic acid [Example 12]
[5]
  RTase Inhibitory Effect (IC50): 9.2 µg/mL

## sodium salt of sulfated (-)-epigallocathechin-3-gallate [Epigallocatechin gallate-S]
[1]; [7]
  Viable count: 1.06e+06 mL⁻¹
  survival rate: 88
[1]; [8]
  Viable count: 400000 mL⁻¹
  survival rate: 92
[1]; [9]
  Viable count: 1.14e+06 mL⁻¹
  survival rate: 85
[1]; [10]
  Viable count: 370000 mL⁻¹
  survival rate: 91
[1]; [11]
  Viable count: 900000 mL⁻¹
  survival rate: 91
[1]; [12]
  Viable count: 950000 mL⁻¹
  survival rate: 92
[1]; [13]
  Viable count: 960000 mL⁻¹
  survival rate: 89
[1]; [14]
  Viable count: 530000 mL⁻¹
  survival rate: 95
[2]; [7]
  Ratio of fluorescent ray emitting cells to total cells: < 1%
[2]; [8]
  Ratio of fluorescent ray emitting cells to total cells: < 1%
[2]; [9]
  Ratio of fluorescent ray emitting cells to total cells: < 1%
[2]; [10]
  Ratio of fluorescent ray emitting cells to total cells: < 1%
[2]; [11]
  Ratio of fluorescent ray emitting cells to total cells: < 1%
[2]; [12]
  Ratio of fluorescent ray emitting cells to total cells: < 1%
[2]; [13]
  Ratio of fluorescent ray emitting cells to total cells: < 1%
[2]; [14]
  Ratio of fluorescent ray emitting cells to total cells: < 1%
[6]
  Stability: stable in powder state and in the form of aqueous solutions
[3]; [7]
  Viable count: 830000 mL⁻¹
  survival rate: 85%
[3]; [8]
  Viable count: 1.3e+06 mL⁻¹
  survival rate: 92%
[3]; [9]
  Viable count: 840000 mL⁻¹
  survival rate: 83%
[3]; [10]
  Viable count: 1.25e+06 mL⁻¹
  survival rate: 95%
[3]; [11]
  Viable count: 810000 mL⁻¹
  survival rate: 89%
[3]; [12]
  Viable count: 750000 mL⁻¹
  survival rate: 87%
[3]; [13]
  Viable count: 720000 mL⁻¹
  survival rate: 82%
[3]; [14]
  Viable count: 500000 mL⁻¹
  survival rate: 86%
[4]; drug 25 μg/ml
  Rate of Giant Cell (cells of size not less than 20 μm): 13.8%
[4]; drug 50 μg/ml
  Rate of Giant Cell (cells of size not less than 20 μm): 17.5%
[4]; drug 100 μg/ml
  Rate of Giant Cell (cells of size not less than 20 μm): 5.6%
[4]; drug 200 μg/ml
  Rate of Giant Cell (cells of size not less than 20 μm): 0.4%

## sodium salt of sulfuric acid ester of 1,2,3,4,6-penta-O-galloyl-β-D-glucose [Example 7]
[5]
  RTase Inhibitory Effect (IC50): 0.45 µg/mL

## sodium salt of sulfuric acid ester of 1,2,3,4,6-penta-O-galloyl-β-D-glucose [Example 9]
[5]
  RTase Inhibitory Effect (IC50): < 0.096 µg/mL
